Reference: patent publication US12497642B2, “Incorporation of unnatural nucleotides and methods of use in vivo thereof” (THE SCRIPPS RESEARCH INSTITUTE, priority 2017, dated 2025)
Where “and” joins values, the source holds several entries; their conditions need not be identical. Identical values can stand only once.

Tests used:
[1] = tested on: semi-synthetic organism (SSO) (strain YZ3); test: Replication and UBP retention in vivo in the semi-synthetic organism (streptavidin biotin shift, PAGE), Example 1; format: cell-based, Escherichia coli; conditions: for UBP retention in vivo, in words: discussion
Experimental: All bacteria were cultured in 100 μL of liquid 2×YT media (casein peptone 16 g/L, yeast extract 10 g/L, NaCl 5 g/L) supplemented with potassium phosphate (50 mM, pH 7) in 96-well microwell plates. When noted, antibiotics were used at the following concentrations: chloramphenicol, 5 μg/mL; ampicillin, 100 μg/mL. Cell growth, indicated as OD600, was measured using a Perkin Elmer EnVision 2103 Multilabel Reader with a 590/20 nm filter. Unless otherwise stated, molecular biology reagents were purchased from New England Biolabs (Ipswich, MA) and were used according to the manufacturer's protocols. As necessary, purification of nucleic acids was accomplished by micro-elution columns (Zymo Research Corp; Irvine, CA). All natural oligonucleotides were purchased from IDT (San Diego, CA), and oligonucleotides containing dNaM were synthesized by Biosearch Technologies (Petaluma, CA) with purification by reverse phase cartridge. Unnatural nucleotide triphosphates were prepared, and confirmed by MALDI-TOF and UV/Vis.
Plasmids containing the dNaM-dTPT3 UBP were prepared and used to transform the semi-synthetic organism (SSO). To create a template for in vivo replication assays, Golden Gate assembly was used to construct a derivative of the pUC19 plasmid in which a single dNaM-dTPT3 UBP was embedded within the TK1 sequence ([…]; […]), a context within which the UBP is well replicated in the SSO. Plasmids were then used to transform the SSO (strain YZ3). Following transformation, the SSO was allowed to recover at 37° C. for 1 h in media containing dNaMTP (125 μM) and dTPT3TP (25 μM). Cells were pelleted by centrifugation, resuspended in fresh media lacking unnatural triphosphates, split into 100-μL aliquots and then used to inoculate cultures containing different pairs of unnatural triphosphates at the specified concentrations. When the cell density reached an OD600 of ˜0.7, cells were pelleted and plasmids were recovered and PCR amplified with d5SICSTP and a biotinylated analog of dNaMTP, and UBP retention was determined by comparing the intensity of the streptavidin shifted and unshifted bands via PAGE.

[2] = target: T1, Klenow fragment of E. coli DNA polymerase I (Escherichia coli, UniProt P00582); test: Steady-state kinetic assay of unnatural triphosphate insertion; format: biochemical; conditions: insertion opposite dY = dA in template
T1 construct: the Klenow fragment of E. coli DNA polymerase I

[3] = context 1, dNaMTP 125 μM, dTPT3TP analog 125 μM
[4] = context 2 (AXA), dTPT3TP 2.5 μM, dNaMTP analog 2.5 μM
[5] = context 2 (AXA), dTPT3TP 2.5 μM, dNaMTP analog 10 μM
[6] = context 2 (AXA), dTPT3TP 2.5 μM, dNaMTP analog 25 μM
[7] = context 2 (AXA), dTPT3TP 10 μM, dNaMTP analog 2.5 μM
[8] = context 2 (AXA), dTPT3TP 10 μM, dNaMTP analog 10 μM
[9] = context 2 (AXA), dTPT3TP 10 μM, dNaMTP analog 25 μM
[10] = context 2 (AXA), dTPT3TP 25 μM, dNaMTP analog 2.5 μM
[11] = context 2 (AXA), dTPT3TP 25 μM, dNaMTP analog 10 μM
[12] = context 2 (AXA), dTPT3TP 25 μM, dNaMTP analog 25 μM
[13] = context 2 (AXA), paired with dSICSTP 10 μM, dNaMTP analog 25 μM
[14] = context 3 (CXC), dTPT3TP 2.5 μM, dNaMTP analog 2.5 μM
[15] = context 3 (CXC), dTPT3TP 2.5 μM, dNaMTP analog 10 μM
[16] = context 3 (CXC), dTPT3TP 2.5 μM, dNaMTP analog 25 μM
[17] = context 3 (CXC), dTPT3TP 10 μM, dNaMTP analog 2.5 μM
[18] = context 3 (CXC), dTPT3TP 10 μM, dNaMTP analog 10 μM
[19] = context 3 (CXC), dTPT3TP 10 μM, dNaMTP analog 25 μM
[20] = context 3 (CXC), dTPT3TP 25 μM, dNaMTP analog 2.5 μM
[21] = context 3 (CXC), dTPT3TP 25 μM, dNaMTP analog 10 μM
[22] = context 3 (CXC), dTPT3TP 25 μM, dNaMTP analog 25 μM
[23] = dNaMTP analog paired with dTPT3TP

T1 sequence (P00582 324-928): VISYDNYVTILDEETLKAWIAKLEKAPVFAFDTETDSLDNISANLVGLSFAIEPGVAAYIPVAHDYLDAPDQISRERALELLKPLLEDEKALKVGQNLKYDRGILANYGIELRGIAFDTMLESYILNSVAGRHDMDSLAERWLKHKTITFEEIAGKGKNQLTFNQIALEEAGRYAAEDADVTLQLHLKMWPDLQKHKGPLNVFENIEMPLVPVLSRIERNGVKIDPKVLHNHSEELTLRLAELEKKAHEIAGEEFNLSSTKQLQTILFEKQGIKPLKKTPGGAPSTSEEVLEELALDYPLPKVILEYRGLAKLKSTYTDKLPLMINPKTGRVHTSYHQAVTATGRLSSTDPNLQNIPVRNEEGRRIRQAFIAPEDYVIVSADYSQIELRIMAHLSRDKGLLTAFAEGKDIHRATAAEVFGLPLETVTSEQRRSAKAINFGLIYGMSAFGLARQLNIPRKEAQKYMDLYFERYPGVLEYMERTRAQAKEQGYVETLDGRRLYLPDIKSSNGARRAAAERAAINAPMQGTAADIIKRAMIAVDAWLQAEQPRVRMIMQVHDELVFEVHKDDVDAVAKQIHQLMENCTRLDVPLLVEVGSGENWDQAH

SMILES	UBP retention [1, 3]	UBP retention (%) [1, 4] [%]	UBP retention (%) [1, 5] [%]	UBP retention (%) [1, 6] [%]	UBP retention (%) [1, 7] [%]	UBP retention (%) [1, 8] [%]	UBP retention (%) [1, 9] [%]	UBP retention (%) [1, 10] [%]	UBP retention (%) [1, 11] [%]	UBP retention (%) [1, 12] [%]	UBP retention [1, 13] [%]	UBP retention (%) [1, 14] [%]	UBP retention (%) [1, 15] [%]	UBP retention (%) [1, 16] [%]	UBP retention (%) [1, 17] [%]	UBP retention (%) [1, 18] [%]	UBP retention (%) [1, 19] [%]	UBP retention (%) [1, 20] [%]	UBP retention (%) [1, 21] [%]	UBP retention (%) [1, 22]	other results
Cc1ccc2ccn(C3CC(O)C(COP(=O)(O)OP(=O)(O)OP(=O)(O)O)O3)c(=S)c2c1 (stereo not shown) [d4SICS]	significant UBP retention	–	–	–	–	–	–	–	–	–	–	–	–	–	–	–	–	–	–	–	–
COc1cc(C)c(F)cc1C1CC(O)C(COP(=O)(O)OP(=O)(O)OP(=O)(O)O)O1 (stereo not shown) [d5FMTP]	–	47 ± 14	61 ± 27	75 ± 6	69 ± 6	83 ± 5	87 ± 12	76 ± 9	95 ± 3	90 ± 7	68	9 ± 6	10 ± 5	11 ± 8	6 ± 4	14 ± 5	27 ± 14	14 ± 3	33 ± 16	49% and 49 ± 27%	–
COc1cc(C#N)ccc1C1CC(O)C(COP(=O)(O)OP(=O)(O)OP(=O)(O)O)O1 (stereo not shown) [dCNMOTP]	–	92 ± 4	82 ± 24	91 ± 10	88 ± 9	91 ± 3	95 ± 2	103 ± 7	103 ± 1	101 ± 10	59	9 ± 1	22 ± 10	31 ± 14	13 ± 5	28 ± 7	35 ± 8	22 ± 7	25 ± 22	42% and 42 ± 18%	UBP retention (%) ([1]; Table 5, sequence context 1 (AXT), dTPT3TP 25 μM, dNaMTP or dCNMOTP 25 μM): 98%; UBP retention (%) ([1]; Table 5, sequence context 1 (AXT), dTPT3TP 25 μM, dNaMTP or dCNMOTP 25 μM, listed as dCNMO): 98 ± 7%; UBP retention (%) ([1]; Table 5, sequence context 1 (AXT), dTPT3TP 25 μM, dNaMTP or dCNMOTP 125 μM): 99 ± 8%; UBP retention (%) ([1]; Table 5, sequence context 2 (AXA), dTPT3TP 25 μM, dNaMTP or dCNMOTP 25 μM): 101 ± 10%; UBP retention (%) ([1]; Table 5, sequence context 2 (AXA), dTPT3TP 25 μM, dNaMTP or dCNMOTP 125 μM): 100 ± 10%; UBP retention (%) ([1]; Table 5, sequence context 3 (CXC), dTPT3TP 25 μM, dNaMTP or dCNMOTP 25 μM): 42%; UBP retention (%) ([1]; Table 5, sequence context 3 (CXC), dTPT3TP 25 μM, dNaMTP or dCNMOTP 25 μM, listed as dCNMO): 42 ± 18%; UBP retention (%) ([1]; Table 5, sequence context 3 (CXC), dTPT3TP 25 μM, dNaMTP or dCNMOTP 125 μM): 65%; UBP retention (%) ([1]; Table 5, sequence context 3 (CXC), dTPT3TP 25 μM, dNaMTP or dCNMOTP 125 μM, listed as dCNMO): 65 ± 7%; UBP retention (%) ([1]; Table 5, sequence context 4 (CXG), dTPT3TP 25 μM, dNaMTP or dCNMOTP 25 μM): 14 ± 5%; UBP retention (%) ([1]; Table 5, sequence context 4 (CXG), dTPT3TP 25 μM, dNaMTP or dCNMOTP 125 μM): 24%; UBP retention (%) ([1]; Table 5, sequence context 4 (CXG), dTPT3TP 25 μM, dNaMTP or dCNMOTP 125 μM, listed as dCNMO): 24 ± 13%
COc1cc(Cl)ccc1C1CC(O)C(COP(=O)(O)OP(=O)(O)OP(=O)(O)O)O1 (stereo not shown) [dClMOTP]	–	73 ± 10	84 ± 7	86 ± 6	83 ± 9	89 ± 5	96 ± 2	80 ± 20	92 ± 4	98 ± 4	61	9 ± 2	7 ± 4	12 ± 2	9 ± 1	15 ± 2	14 ± 5	8 ± 4	20 ± 7	21%	UBP retention (%) ([1]; context 3 (CXC), dTPT3TP 25 μM, dNaMTP analog 25 μM, listed as dCIMOTP): 21 ± 14%
C#Cc1cc(OC)c(C2CC(O)C(COP(=O)(O)OP(=O)(O)OP(=O)(O)O)O2)cc1F (stereo not shown) [dFEMOTP]	–	–	–	–	–	–	–	–	–	–	–	–	–	–	–	–	–	–	–	–	UBP retention in vivo, in words [1, 23]: well retained in vivo when supplemented at high concentrations
Cc1cc2c(=S)n(C3CC(O)C(COP(=O)(O)OP(=O)(O)OP(=O)(O)O)O3)ccc2o1 (stereo not shown) [dFPT1]	significant UBP retention	–	–	–	–	–	–	–	–	–	–	–	–	–	–	–	–	–	–	–	–
COc1cc(C)ccc1C1CC(O)C(COP(=O)(O)OP(=O)(O)OP(=O)(O)O)O1 (stereo not shown) [dMMO2TP]	–	17 ± 8	54 ± 19	47 ± 20	68 ± 16	67 ± 16	88 ± 7	63 ± 31	86 ± 11	90 ± 4	19	5 ± 3	10 ± 3	13 ± 4	9 ± 3	16 ± 10	22 ± 10	19 ± 8	36 ± 12	45% and 45 ± 20%	–
O=P(O)(O)OP(=O)(O)OP(=O)(O)OCC1OC(n2ccc3ccccc3c2=S)CC1O (stereo not shown) [dSICSTP]	significant UBP retention	–	–	–	–	–	–	–	–	–	–	–	–	–	–	–	–	–	–	–	–
O=P(O)(O)OP(=O)(O)OP(=O)(O)OCC1OC(n2ccc3ncccc3c2=S)CC1O (stereo not shown) [dSNICS]	significant UBP retention	–	–	–	–	–	–	–	–	–	–	–	–	–	–	–	–	–	–	–	UBP retention in vivo, in words ([1]; dTPT3TP analog paired with dNaMTP): moderate retention at both low and high concentrations
Cc1cc2c(=S)n(C3CC(O)C(COP(=O)(O)OP(=O)(O)OP(=O)(O)O)O3)ccc2s1 (stereo not shown) [dTPT1]	significant UBP retention	–	–	–	–	–	–	–	–	–	–	–	–	–	–	–	–	–	–	–	–
O=P(O)(O)OP(=O)(O)OP(=O)(O)OCC1OC(n2ccc3ccsc3c2=S)CC1O (stereo not shown) [dTPT3TP]	significant UBP retention	–	–	–	–	–	–	–	–	–	–	–	–	–	–	–	–	–	–	–	UBP retention ([1]; context 2 (AXA), dTPT3TP 10 μM paired with each of the four dNaMTP analogs at 25 μM): > 87%
Cc1cn([C@H]2C[C@H](O)[C@@H](COP(=O)(O)OP(=O)(O)OP(=O)(O)O)O2)c(=O)[nH]c1=O [dTTP, reference compound]	–	–	–	–	–	–	–	–	–	–	–	–	–	–	–	–	–	–	–	–	kcat [2]: 0.085 s⁻¹ and 0.0853 ± 0.0127 s⁻¹
COc1cc(N=[N+]=[N-])ccc1C1CC(O)C(COP(=O)(O)OP(=O)(O)OP(=O)(O)O)O1 (stereo not shown) [dZMOTP]	–	–	–	–	–	–	–	–	–	–	–	–	–	–	–	–	–	–	–	–	UBP retention in vivo, in words [1, 23]: well retained in vivo when supplemented at high concentrations
